Results reported in patent US5250679A, “Nonpeptidyl platelet aggregation inhibitors having specificity for the GPIIb III receptor” (Genentech, Inc., priority 1992, dated 1993).
pIC50: −log10 of the molar value. Structures can show the parent of a compound that is named as a salt.

target: T1, GP IIb IIIa (Homo sapiens, UniProt P05106+P08514); assay: Fibrinogen-GP IIb IIIa Receptor ELISA Binding Assay (Fg/IIbIIIa); conditions: Example 29, Cmpd # 1-105; read-out: IC50 Fg/IIbI
T1 construct: from tissue; host or cells: outdated human platelets
T1 sequence (P08514 32-887 limits assumed): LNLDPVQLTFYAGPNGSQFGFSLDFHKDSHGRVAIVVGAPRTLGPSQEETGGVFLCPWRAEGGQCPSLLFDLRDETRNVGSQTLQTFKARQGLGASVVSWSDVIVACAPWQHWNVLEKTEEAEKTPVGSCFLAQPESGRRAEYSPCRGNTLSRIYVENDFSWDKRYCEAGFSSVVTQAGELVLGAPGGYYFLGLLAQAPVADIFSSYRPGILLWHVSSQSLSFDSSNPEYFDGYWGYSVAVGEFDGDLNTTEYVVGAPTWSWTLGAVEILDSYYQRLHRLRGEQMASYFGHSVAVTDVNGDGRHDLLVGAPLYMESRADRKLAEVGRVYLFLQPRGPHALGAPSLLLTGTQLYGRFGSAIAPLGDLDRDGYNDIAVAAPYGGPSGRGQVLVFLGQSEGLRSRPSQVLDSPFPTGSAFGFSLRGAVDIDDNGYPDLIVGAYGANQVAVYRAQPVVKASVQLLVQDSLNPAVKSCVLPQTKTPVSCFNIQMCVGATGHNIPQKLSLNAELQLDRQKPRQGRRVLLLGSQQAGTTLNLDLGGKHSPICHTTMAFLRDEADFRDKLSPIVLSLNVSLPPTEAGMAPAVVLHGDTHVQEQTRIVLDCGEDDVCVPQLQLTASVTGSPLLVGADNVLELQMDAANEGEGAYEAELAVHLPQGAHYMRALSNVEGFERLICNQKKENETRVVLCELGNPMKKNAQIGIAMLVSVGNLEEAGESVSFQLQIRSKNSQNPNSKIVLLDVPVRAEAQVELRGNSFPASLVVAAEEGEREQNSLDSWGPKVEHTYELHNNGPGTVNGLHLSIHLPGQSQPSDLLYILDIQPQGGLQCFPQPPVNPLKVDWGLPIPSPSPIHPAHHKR
T1 sequence (P08514 891-1039 partner limits assumed): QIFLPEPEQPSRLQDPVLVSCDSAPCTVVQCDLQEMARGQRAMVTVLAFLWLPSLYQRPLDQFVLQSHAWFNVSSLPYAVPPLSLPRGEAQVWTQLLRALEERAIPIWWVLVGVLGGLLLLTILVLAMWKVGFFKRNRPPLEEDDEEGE
T1 sequence (P05106 27-788): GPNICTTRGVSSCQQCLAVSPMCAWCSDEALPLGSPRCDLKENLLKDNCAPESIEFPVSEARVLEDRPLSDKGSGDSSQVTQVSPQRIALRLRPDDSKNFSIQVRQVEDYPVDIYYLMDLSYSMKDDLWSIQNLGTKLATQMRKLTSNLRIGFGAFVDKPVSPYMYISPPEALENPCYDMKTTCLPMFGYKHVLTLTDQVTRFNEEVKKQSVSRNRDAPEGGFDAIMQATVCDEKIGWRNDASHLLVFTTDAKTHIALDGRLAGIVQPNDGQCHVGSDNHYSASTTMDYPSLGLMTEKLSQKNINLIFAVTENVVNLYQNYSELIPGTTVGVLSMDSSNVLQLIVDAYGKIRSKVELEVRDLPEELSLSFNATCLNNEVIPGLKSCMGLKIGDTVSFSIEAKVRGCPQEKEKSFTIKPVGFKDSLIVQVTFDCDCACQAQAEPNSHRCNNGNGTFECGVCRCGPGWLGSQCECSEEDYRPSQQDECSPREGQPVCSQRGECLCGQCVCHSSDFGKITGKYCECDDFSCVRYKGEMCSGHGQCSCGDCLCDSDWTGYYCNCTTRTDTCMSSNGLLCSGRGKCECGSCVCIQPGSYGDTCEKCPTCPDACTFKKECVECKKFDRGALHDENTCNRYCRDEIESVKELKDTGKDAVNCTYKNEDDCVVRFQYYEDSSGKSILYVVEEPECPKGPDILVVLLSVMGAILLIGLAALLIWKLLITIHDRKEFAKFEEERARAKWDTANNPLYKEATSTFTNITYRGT
Protocol: Briefly, microtiter plates are coated with fibrinogen (10 mg/ml) and then blocked with TACTS buffer containing 0.5% bovine serum albumin (BSA). […] After another wash a goat anti-mouse IgG conjugated to horseradish peroxidase is added. […] The reaction is stopped with 1N sulfuric acid and the absorbance at 492 nm is recorded. […] Outdated human platelets are washed 3 times with 10 mM tris-HCl, 150 mM NaCl (TBS), 1 mM EDTA, pH 7.5, and centrifuged at 2000×g to pellet cells. […] The supernatant fraction is collected and the supernatant is loaded onto a concanavalin-A column, previously equilibrated in TBS, 1 mM Ca2 Cl2, 0.1% Triton, 0.05% NaN3 and eluted with 0.2M a-methylmannoside. Fractions are pooled and loaded onto a heparin-agarose column. The flowthrough is collected and concentrated on an Amicon YM 30 filter to a volume of approximately 5-10 ml. The concentrate is then applied to an S-300 column (500 ml) and 6 ml fractions are collected. The GP IIb IIIa containing fractions are collected, pooled, and stored at -80° C. […] The precipitate is spun down in appropriate size bottles at 2000×g. The supernatant is decanted and the precipitate resuspended in 150 mM NaCl (approximately 50% of the original volume). […] The suspension is spun down and the precipitate is resuspended in Tris-saline in a minimal volume (approximately 5% of the original volume). Any remaining insoluble material is spun down at 2000 rpm in a Sorval type centrifuge and the fibrinogen supernatant is decanted and dialyzed overnight at 4° C. against Tris-saline. Characterization of the fibrinogen is by the Bradford protein assay, SDS-PAGE, and/or Western blotting using well known standard procedures. Briefly, 96 well plates are coated (Type Nunc 1 MaxisorpTM) with 10 mg/ml purified fibrinogen ([…]), and allowed to stand overnight at 4° C. […] The plates are again washed three times with PBS/Tween and then […] of sample in TNCNT is added. The mixture is incubated for 15 minutes at room temperature on a plate shaker. […] Fifty ml of this diluted GP IIb IIIa is then added to each well and incubated on a plate shaker at room temperature. After one hour, the plates are washed four times with PBS/Tween and 100 ml of a polyclonal or monoclonal antibody specific for GP IIIa such as AP3 (1 mg/ml) (See e.g. […] After a one hour incubation at room temperature on a plate shaker, the samples are washed 4 times with PBS/Tween. […] The color develops within about 3 to 20 minutes and the reaction is stopped with 100 ml 1M H2 SO4. The optical density at 492 nm vs 405 nm is recorded and IC50 values are determined.

pIC50	Compound
7.00	CN1C(=O)CN(CCC(=O)O)C(=O)c2cc(C#CCCCCN)ccc21 [Cmpd 41, 1-(methyl)-4-(2-carboxyethyl)-7-(6-amino-1-hexynyl)-3,4-dihydro-1H-1,4-benzodiazepine-2,5-dione trifluroacetate]
5.08	NCCCc1ccc2c(c1)C(=O)N(CCC(=O)O)CC(=O)N2 [Cmpd 1]
6.70	NCCCCCc1ccc2c(c1)C(=O)N(CCC(=O)O)CC(=O)N2Cc1ccc(F)cc1F [Cmpd 101]
7.33	N=C(N)NCCCCCCc1ccc2c(c1)C(=O)N(CCC(=O)O)CC(=O)N2Cc1ccc(C(F)(F)F)cc1 [Cmpd 89, 1-(p-trifluoromethylbenzyl)-4-(2-carboxyethyl)-7-(6-guanidinohexyl)-3,4-dihydro-1H-1,4-benzodiazepine-2,5-dione trifluoroacetate]
7.57	NCCCCC#Cc1ccc2c(c1)C(=O)N(CCC(=O)O)CC(=O)N2Cc1ccc(F)cc1F [Cmpd 99]
5.30	CN1C(=O)CN(CCC(=O)O)C(=O)c2cc(CCCCN)ccc21 [Cmpd 19]
7.96	N=C(N)NCCCCCc1ccc2c(c1)C(=O)N(CCC(=O)O)CC(=O)N2Cc1cccc(Oc2ccccc2)c1 [Cmpd 92, 1-(m-phenoxybenzyl)-4-(2-carboxyethyl)-7-(5-guanidinopentyl)-3,4-dihydro-1H-1,4-benzodiazepine-2,5-dione trifluoroacetate]
5.15	CN1C(=O)CN(CCC(=O)O)C(=O)c2cc(C#CCN)ccc21 [Cmpd 5]
7.42	N=C(N)NCCCCCCc1ccc2c(c1)C(=O)N(CCC(=O)O)CC(=O)N2Cc1ccc(F)cc1F [Cmpd 104]
6.92	CN1C(=O)CN(CCC(=O)O)C(=O)c2cc(CCCCCCNC(=N)N)ccc21 [Cmpd 40]
6.60	N=C(N)NCCCC#Cc1ccc2c(c1)C(=O)N(CCC(=O)O)CC(=O)N2 [Cmpd 32]
6.70	CN1C(=O)CN(C(CC(=O)O)c2ccccc2)C(=O)c2cc(CCCCCCN)ccc21 (centres unmarked) [Cmpd 51]
5.07	CC(=O)NCCCCCCc1ccc2c(c1)C(=O)N(CCC(=O)O)CC(=O)N2Cc1ccc(Cl)cc1 [Cmpd 105]
< 4.00	CN1C(=O)C2CCC(CC(=O)O)N2C(=O)c2cc(CCCNC(=N)N)ccc21 (centres unmarked) [Cmpd 18]
7.51	N=C(N)NCCCCC#Cc1ccc2c(c1)C(=O)N(CCC(=O)O)CC(=O)N2Cc1ccc([N+](=O)[O-])cc1 [Cmpd 88]
7.21	CC(CC(=O)O)N1CC(=O)N(C)c2ccc(C#CCCCN)cc2C1=O (centres unmarked) [Cmpd 37, 1-methyl-4-(2-carboxy-1-methylethyl)-7-(5-amino-1-pentyne)-3,4-dihydro-1H-1,4-benzodiazepine-2,5-dione trifluroacetate]
6.75	NCCCCCc1ccc2c(c1)C(=O)N(CCC(=O)O)CC(=O)N2Cc1ccc(Cl)cc1 [Cmpd 62]
4.60	CN1C(=O)C(c2ccccc2)N(CCC(=O)O)C(=O)c2cc(C#CCNC(=N)N)ccc21 (centres unmarked) [Cmpd 14]
7.26	N=C(N)NCCCCCCc1ccc2c(c1)C(=O)N(CCC(=O)O)CC(=O)N2Cc1ccc2ccccc2c1 [Cmpd 86, 1-(2-napthyl)methyl-4-(2-carboxyethyl)-7-(6-guanidinohexyl)-3,4-dihydro-1H-1,4-benzodiazepine-2,5-dione trifluoroacetate]
6.33	CN1C(=O)CN(CCC(=O)O)C(=O)c2cc(CCCNC(=N)N)ccc21 [Cmpd 4]
< 4.00	CC1C(=O)N(C)c2ccc(C#CCCN)cc2C(=O)N1CCC(=O)O (centres unmarked) [Cmpd 25]
< 4.00	CC1C(=O)N(C)c2ccc(CCCCN)cc2C(=O)N1CCC(=O)O (centres unmarked) [Cmpd 23]
6.77	CN1C(=O)CN(CCC(=O)O)C(=O)c2cc(C#CCNC(=N)N)ccc21 [Cmpd 6]
< 4.00	CC1C(=O)N(C)c2ccc(CCCNC(=N)N)cc2C(=O)N1CCC(=O)O (centres unmarked) [Cmpd 8]
3.22	CN1C(=O)C(c2ccccc2)N(CCC(=O)O)C(=O)c2cc(CCCN)ccc21 (centres unmarked) [Cmpd 11]
5.00	CN1C(=O)CN(CCC(=O)O)C(=O)c2cc(CCc3cccc(N)c3)ccc21 [Cmpd 47]
4.52	CN1C(=O)CN(CCC(=O)O)C(=O)c2cc(C#Cc3ccc(C#N)cc3)ccc21 [Cmpd 57]

same assay, conditions: Examples 29 and 30, Cmpd # tables; read-out: IC50 (μM) Fg/IIbIIIa

IC50	Compound
0.119 µM	NCCOc1ccc(-c2ccc3c(c2)C(=O)N(CCC(=O)O)CC(Cc2ccccc2)O3)cc1 (centres unmarked) [Cmpd 150, trifluoroacetate]
12 µM	NCCCC#Cc1ccc2c(c1)C(=O)N(CCC(=O)O)CCO2 [Cmpd 144]
0.552 µM	N=C(N)NCC#Cc1cccc(C(=O)NCCC(=O)O)c1 [Cmpd 159]
0.013 µM	N=C(N)NCCCCCCc1ccc2c(c1)C(=O)N(CCC(=O)O)CC(=O)N2Cc1ccc(NC(=O)CCNC(=N)N)cc1 [Cmpd 119]
2.3 µM	N=C(N)NCCCc1cccc(C(=O)NCCC(=O)O)c1 [Cmpd 158]
1 µM	N=C(N)NCCCC#Cc1cccc(C(=O)NCCC(=O)O)c1 [Cmpd 162]
0.823 µM	N=C(N)NCCCC#Cc1ccc2c(c1)C(=O)N(CCC(=O)O)CC(Cc1ccccc1)O2 (centres unmarked) [Cmpd 149]
0.008 µM	NCCCCCCc1ccc2c(c1)C(=O)N(CCC(=O)O)CC(=O)N2Cc1ccc(C(=O)O)cc1 [Cmpd 135, 1-(4-carboxyphenyl)methyl-4-(2-carboxyethyl)-7-(6-aminohexyl)-3,4-dihydro-1H-1,4-benzodiazapine-2,5-dione]
0.016 µM	N=C(N)NCCCCCc1ccc2c(c1)C(=O)N(CCC(=O)O)CC(=O)N2Cc1ccc(C(=O)O)cc1 [Cmpd 133]
~100 µM	N=C(N)NCCCCCc1ccc2c(c1)C(=O)N(CCC(=O)O)CCC2 [Cmpd 156]
0.009 µM	CN1C(=O)CN(CCC(=O)O)C(=O)c2cc3cc(C#CCNC(=N)N)ccc3cc21 [Cmpd 138, 1-Methyl-4-(carboxyethyl)-8-(3-guanidino-1-propynyl)-3,4-dihydro-1H-1,4-naphthodiazepine-2,5-dione]
> 100 µM	NCCCCCc1ccc2c(c1)C(=O)N(CCC(=O)O)CCC2 [Cmpd 155]
0.176 µM	NCCCCCc1ccc2c(c1)C(=O)N(CCC(=O)O)CC(=O)N2Cc1ccc(C(=O)O)cc1 [Cmpd 136]
> 100 µM	NCCCCCCCCOc1ccc2c(c1)C(=O)N(CCC(=O)O)CCC2 [Cmpd 151, 2-(2-carboxyethyl)-8-(8-aminooctyloxy)-2,3,4,5-tetrahydro-1H-2-benzazepin-1-one trifluoroacetate]
80 µM	NCCCCCc1ccc2c(c1)C(=O)N(CCC(=O)O)CCO2 [Cmpd 146]
0.064 µM	NCCCCCCc1ccc2c(c1)C(=O)N(CCC(=O)O)CC(=O)N2CCCCCN [Cmpd 125]
1.8 µM	CN1C(=O)CN(CCC(=O)O)C(=O)c2cc3c(cc21)CCC(CCCN)C3 (centres unmarked) [Cmpd 141, 1-Methyl-4-(carboxyethyl)-8-(3-amino-1-propyl)-3,4,7,8,9,10-hexahydrohydro-1H-1,4-naphthodiazepine-2,5-dione]
0.024 µM	NCCCCCCc1ccc2c(c1)C(=O)N(CCC(=O)O)CC(=O)N2Cc1ccc(N)cc1 [Cmpd 128]
0.024 µM	NCCCCCCc1ccc2c(c1)C(=O)N(CCC(=O)O)CC(=O)N2Cc1cccc(CCCCN)c1 [Cmpd 120]
50 µM	N=C(N)NCCCCCCCCOc1ccc2c(c1)C(=O)N(CCC(=O)O)CCC2 [Cmpd 152, 2-(2-carboxyethyl)-8-(8-guanadinooctyloxy)-2,3,4,5-tetrahydro-1H-2-benzazepin-1-one trifluoroacetate]
